Measurements: PubChem BioAssay AID624129 (Sanford-Burnham Center for Chemical Genomics, 2012)
Active and inactive are the calls of the source. How the calls were made is not given here.

What was measured:
Test in all cases: potency against CXCR6 with APJ panel – cell-based, beta-arrestin, DiscoveRx, uHTS hits, dose response (AID 624129)
[1] = biological target: C-C chemokine receptor type 6 (Homo sapiens) (UniProt P51684); details: CXCR6 beta-arrestin (DiscoveRx) antagonist cell assay
[2] = biological target: C-X-C chemokine receptor type 6 (Homo sapiens) (UniProt O00574); details: CXCR6 beta-arrestin (DiscoveRx) antagonist cell assay; for inhibition: CXCR6, run 1, dose range 2, at 80 µM (top of the series)
[3] = biological target: Apelin receptor (Homo sapiens) (UniProt P35414); details: CXCR6 beta-arrestin (DiscoveRx) antagonist cell assay, APJ
[4] = biological target: Beta-galactosidase (Escherichia coli) (UniProt Q8VNN2); details: CXCR6 beta-arrestin (DiscoveRx) antagonist cell assay, b-galactosidase
[5] = CCR6, dose range 1, mean IC50 across replicates
[6] = CXCR6, dose range 1, mean IC50 across replicates
[7] = dose range 1, mean IC50 across replicates

Chain of C-X-C chemokine receptor type 6 (Homo sapiens) (O00574 whole entry, looked up): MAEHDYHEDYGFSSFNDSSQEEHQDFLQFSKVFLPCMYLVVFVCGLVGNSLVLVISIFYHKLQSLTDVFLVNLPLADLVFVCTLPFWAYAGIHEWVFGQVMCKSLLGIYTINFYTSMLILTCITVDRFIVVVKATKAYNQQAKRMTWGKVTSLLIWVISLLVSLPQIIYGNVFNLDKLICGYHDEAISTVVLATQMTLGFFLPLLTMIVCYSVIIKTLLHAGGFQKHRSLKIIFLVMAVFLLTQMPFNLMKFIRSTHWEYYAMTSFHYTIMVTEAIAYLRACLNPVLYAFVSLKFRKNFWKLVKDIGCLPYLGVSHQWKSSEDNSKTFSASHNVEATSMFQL
Chain of Beta-galactosidase (Escherichia coli) (Q8VNN2 whole entry, looked up): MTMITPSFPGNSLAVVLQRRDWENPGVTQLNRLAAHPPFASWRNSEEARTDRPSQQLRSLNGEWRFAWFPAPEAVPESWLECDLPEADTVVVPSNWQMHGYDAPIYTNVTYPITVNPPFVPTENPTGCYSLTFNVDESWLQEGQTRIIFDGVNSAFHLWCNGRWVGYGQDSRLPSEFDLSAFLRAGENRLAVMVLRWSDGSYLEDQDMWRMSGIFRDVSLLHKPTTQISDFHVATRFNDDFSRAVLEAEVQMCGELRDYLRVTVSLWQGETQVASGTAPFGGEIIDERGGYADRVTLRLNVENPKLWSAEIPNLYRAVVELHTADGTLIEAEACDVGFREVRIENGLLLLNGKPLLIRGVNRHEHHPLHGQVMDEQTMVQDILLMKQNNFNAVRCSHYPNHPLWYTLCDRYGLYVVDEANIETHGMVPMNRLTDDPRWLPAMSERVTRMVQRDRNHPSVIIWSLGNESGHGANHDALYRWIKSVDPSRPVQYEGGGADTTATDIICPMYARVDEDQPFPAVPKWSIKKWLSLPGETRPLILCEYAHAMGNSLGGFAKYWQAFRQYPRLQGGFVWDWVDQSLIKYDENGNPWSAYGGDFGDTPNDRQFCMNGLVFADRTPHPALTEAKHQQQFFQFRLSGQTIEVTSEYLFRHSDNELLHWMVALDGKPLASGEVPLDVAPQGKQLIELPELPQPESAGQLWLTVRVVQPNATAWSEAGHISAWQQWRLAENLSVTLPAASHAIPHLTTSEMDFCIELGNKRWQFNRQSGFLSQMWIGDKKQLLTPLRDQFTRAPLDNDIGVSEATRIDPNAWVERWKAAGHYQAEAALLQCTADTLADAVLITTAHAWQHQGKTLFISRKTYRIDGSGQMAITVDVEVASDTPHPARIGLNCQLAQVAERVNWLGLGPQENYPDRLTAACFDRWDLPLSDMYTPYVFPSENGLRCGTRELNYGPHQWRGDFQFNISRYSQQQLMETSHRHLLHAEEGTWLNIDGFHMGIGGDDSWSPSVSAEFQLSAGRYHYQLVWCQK

Row | SMILES | IC50 ([1]; CCR6, dose range 1) | IC50 [1, 5] | IC50 ([1]; CCR6, run 2, dose range 1) | IC50 [2, 6] | IC50 ([2]; CXCR6, run 1, dose range 2) | IC50 ([2]; CXCR6, run 2, dose range 1) | IC50 ([2]; CXCR6, run 2, dose range 2) | IC50 ([3]; dose range 1) | IC50 [3, 7] | IC50 ([3]; run 2, dose range 1) | IC50 ([3]; run 3, dose range 1) | IC50 ([4]; dose range 1) | IC50 [4, 7] | IC50 ([2]; CXCR6, dose range 1) | inhibition [2]
1 | Cc1c(CCCl)c(Cl)n2c(nc3ccccc32)c1C#N | inactive | 41.5 µM | 51.1 µM | 6.38 µM | 5.75 µM | > 80 µM | 7.02 µM | > 80 µM (inactive) | > 80 µM | > 80 µM | > 80 µM | > 80 µM (inactive) | > 80 µM |  | 
2 | COc1ccc([N+](=O)[O-])c(S(=O)(=O)c2ccc(Cl)cc2)n1 | 69.3 µM | 62.5 µM | 55.8 µM | 51.9 µM |  | 61.5 µM |  | 47.2 µM | 49.4 µM | 51.5 µM | > 80 µM | > 80 µM (inactive) | > 80 µM | inactive | 75.8%
3 | CS(=O)(=O)c1ncc(Cl)c(C(=O)Nc2ccc3ccccc3c2)n1 |  | 47.5 µM | 47.5 µM | > 80 µM |  | > 80 µM |  | 61.2 µM | 60.7 µM | 60.1 µM | > 80 µM | > 80 µM (inactive) | > 80 µM | > 80 µM (inactive) | 47.9%
4 | CN(C)S(=O)(=O)c1cccc(NC(=O)CSc2cccc3cccnc23)c1 | 37.3 µM | 34.1 µM | 30.8 µM | 30.8 µM |  | 27.2 µM |  | 47.9 µM | 48.1 µM | 47.7 µM | 48.7 µM | > 80 µM (inactive) | > 80 µM | inactive | 123%
5 | CC(C)(C)C(=O)NC(=S)NNC(=O)c1sc2ccccc2c1Cl |  | 34 µM | 34 µM | > 80 µM |  | > 80 µM |  | 24.4 µM | 18.1 µM | 15.2 µM | 14.7 µM | > 80 µM (inactive) | > 80 µM | > 80 µM (inactive) | 63.6%
6 | CC(=O)NC(=S)Nc1sc2c(c1C(N)=O)CCC(C)C2 (centres undefined) |  | > 80 µM | > 80 µM | > 80 µM |  | > 80 µM |  |  | > 80 µM | > 80 µM | > 80 µM | > 80 µM (inactive) | > 80 µM | > 80 µM (inactive) | -35.8%
7 | O=C(/C=C/c1cccc([N+](=O)[O-])c1)c1ccc([N+](=O)[O-])o1 | 6.68 µM | 20.8 µM | 34.9 µM | 19 µM | 7.73 µM | > 80 µM | 7.58 µM |  | > 80 µM | > 80 µM | > 80 µM | > 80 µM (inactive) | > 80 µM | inactive | 
8 | COc1ccc(N2C(=O)CC(Sc3nnnn3-c3ccc(F)cc3)C2=O)cc1 (centres undefined) | 8.24 µM | 9.45 µM | 10.7 µM | > 80 µM |  | > 80 µM |  | 10 µM | 10 µM | > 80 µM | > 80 µM | > 80 µM (inactive) | > 80 µM | > 80 µM (inactive) | -50.3%
9 | Cc1cc(S(=O)(=O)c2ccc(Cl)cc2)nc(S(=O)(=O)c2ccc(Cl)cc2)c1C#N |  | 30.5 µM | 30.5 µM | 18.3 µM |  | 8.04 µM |  | 22.9 µM | 37 µM | 31.3 µM | 56.9 µM | inactive | 50.1 µM | inactive | 93.1%
10 | CC(Oc1ccc(Br)cc1)C(=O)Nc1nc(-c2ccccn2)cs1 (centres undefined) | 5.51 µM | 6.66 µM | 7.8 µM | 5.51 µM | 4.23 µM | 6.13 µM | 4.93 µM | 6.97 µM | 5.95 µM | 5.67 µM | 5.22 µM | > 80 µM (inactive) | > 80 µM | 6.74 µM | 
11 | O=C1CN(C(=O)CSc2nc3cc(Cl)ccc3c(=O)n2Cc2ccccc2)c2ccccc2N1 | 9.4 µM | 11.1 µM | 12.7 µM | 8.57 µM | 9.5 µM | > 80 µM | 7.63 µM | > 80 µM (inactive) | > 80 µM | > 80 µM | > 80 µM | > 80 µM (inactive) | > 80 µM |  | 
12 | CC(=O)OCCCNc1cc(Sc2nc3ccccc3s2)c2nonc2c1[N+](=O)[O-] | 6.38 µM | 30 µM | 53.6 µM | 8.69 µM | 8.09 µM | > 80 µM | 9.29 µM | > 80 µM (inactive) | > 80 µM | > 80 µM | > 80 µM | > 80 µM (inactive) | > 80 µM |  | 
13 | Cc1ccc(OCCN2C(=O)c3ccccc3C2=O)c([N+](=O)[O-])c1 | 8.16 µM | 6.82 µM | 5.48 µM | 5.31 µM | 5.94 µM | 4.95 µM | 3.96 µM | 4.29 µM | 5.81 µM | 7.87 µM | 5.29 µM | > 80 µM (inactive) | > 80 µM | 6.4 µM | 

The next molecules have a lower IC50 [1, 5] than those just listed; values first:

Row | IC50 ([1]; CCR6, dose range 1) | IC50 [1, 5] | IC50 ([1]; CCR6, run 2, dose range 1) | IC50 [2, 6] | IC50 ([2]; CXCR6, run 1, dose range 2) | IC50 ([2]; CXCR6, run 2, dose range 1) | IC50 ([2]; CXCR6, run 2, dose range 2) | IC50 ([3]; dose range 1) | IC50 [3, 7] | IC50 ([3]; run 2, dose range 1) | IC50 ([3]; run 3, dose range 1) | IC50 ([4]; dose range 1) | IC50 [4, 7] | IC50 ([2]; CXCR6, dose range 1) | inhibition [2] | SMILES
14 | 5.59 µM | 6.07 µM | 6.55 µM | 7.76 µM |  | 7.68 µM |  | 13.2 µM | 17.9 µM | 21.6 µM | 18.9 µM | 25.6 µM | 25.6 µM | 7.83 µM | 125% | O=c1oc2ccccc2c(Cl)c1CN1CCCCC1
15 | 4.56 µM | 5.9 µM | 7.23 µM | 8.58 µM |  | 6.03 µM |  | 5.99 µM | 6.77 µM | 7.04 µM | 7.28 µM | > 80 µM (inactive) | > 80 µM | 11.1 µM | 130% | CCOC(=O)c1c(SCCN2CCCCC2)n(-c2ccccc2)c(=S)n(-c2ccccc2)c1=O
16 | 6 µM | 5.65 µM | 5.3 µM | 7.46 µM | 8.56 µM | 6.34 µM | 8.1 µM | 10.3 µM | 8.8 µM | 7.74 µM | 8.35 µM | 25.6 µM | 25.6 µM | 6.85 µM |  | CN(CCO)c1cc(Sc2nc3ccccc3s2)c2nonc2c1[N+](=O)[O-]
17 | 4.22 µM | 5.29 µM | 6.36 µM | 6.17 µM | 4.06 µM | 6.29 µM | 3.6 µM | 4.54 µM | 5.35 µM | 6.22 µM | 5.31 µM | > 80 µM (inactive) | > 80 µM | 10.7 µM |  | O=C(CSc1cccc2cccnc12)N1CCCC1
18 | 4.18 µM | 5.05 µM | 5.92 µM | 4.34 µM | 3.34 µM | 4.25 µM | 2.87 µM | 3.95 µM | 4.26 µM | 4.72 µM | 4.11 µM | > 80 µM (inactive) | > 80 µM | 6.91 µM |  | O=C(CSc1cccc2cccnc12)N/N=C/c1cccnc1
19 | 3.58 µM | 4.25 µM | 4.93 µM | 3.83 µM | 3.14 µM | 4.53 µM | 2.7 µM | 4.87 µM | 5.15 µM | 5.63 µM | 4.93 µM | > 80 µM (inactive) | > 80 µM | 4.96 µM |  | Cc1ccc(/C=N/NC(=S)N2CCOCC2)cc1
20 | 2.61 µM | 3.11 µM | 3.6 µM | 3.92 µM | 2.75 µM | 4.5 µM | 2.23 µM | 3.43 µM | 8.09 µM | 3.41 µM | 17.4 µM | > 80 µM (inactive) | > 80 µM | 6.22 µM |  | C/C(=N\NC(=O)C(C)Oc1ccc([N+](=O)[O-])cc1)c1ccccn1 (centres undefined)
21 | 0.999 µM | 1.43 µM | 1.86 µM | 1.55 µM | 1.07 µM | 2.07 µM | 1.14 µM | 2.44 µM | 3.07 µM | 3.21 µM | 3.56 µM | > 80 µM (inactive) | > 80 µM | 1.92 µM |  | Cc1[nH]n(-c2ccccc2)c(=S)c1C=NCCCN=Cc1c(C)[nH]n(-c2ccccc2)c1=S
22 | 0.491 µM | 0.54 µM | 0.589 µM | 0.702 µM |  | 0.53 µM |  | 0.347 µM | 0.41 µM | > 80 µM | 0.463 µM | > 80 µM (inactive) | > 80 µM | 0.874 µM | 53.2% | O=C(Nc1cccc(C(F)(F)F)c1)Oc1ccc(Cl)c2cccnc12
